Experimental data: patent US10568892B2, “Cycloartane tetracyclic triterpenoid compound, preparation method therefor and use thereof” (Hefei Cosource Pharmaceuticals Inc., priority 2016, dated 2020)
Marks after values point to notes of the source that are not given here.

Columns and labels:
guinea pig heart = test: Atrial fibrillation induced by high- and low-potassium Langendorff perfusion of the guinea pig heart; conditions: 1 μM; within 60 min of low-potassium perfusion
Source text: Method: a total of 24 guinea pigs were divided into 4 groups according to body weight, and were sacrificed. The heart was quickly taken out, and the blood was squeezed in the ice bath perfusion solution. The heart was quickly transferred in the Langendorff perfusion system, and the perfusion at a constant rate was started by turning on the oxygen-saturated perfusate. One end of the electrode was placed at the cardiac apex, and one end was placed at the right atrium (the position of the atrial appendage). The electrocardiogram was recorded on the computer.
After the heart was stabilized, 10 min after the perfusion of high-K perfusate, blank vehicle, 0.1 μM, 1 μM, and 10 μM of Compound 369, 1 μM Amiodarone and Cyclovirobuxine D were simultaneously administrated and the high K perfusion was continued for 20 min, respectively. Then, the high K perfusion was removed to administrate the low-K perfusate, and the electrocardiogram was obtained at the same time to record whether there was atrial fibrillation within 60 min of low-potassium perfusion.

[1] = test system: ventricular papillary muscle cell of guinea pig; test: Action potential of the ventricular papillary muscle cell of guinea pig (electrophysiological recording); type: cell-based; conditions: n = 6, x ± SD
Method: Method: One guinea pig was taken to violently hit the back of the brain such that it fainted. The common carotid artery was cut off for bleeding to kill the guinea pig. The chest was incised to expose the heart, and the ventricle was cut open along the interventricular septum to expose the lumen of the left ventricle. The papillary muscles were quickly taken out and placed in a Kreb's solution saturated with O2 (mixed gas of 95% O2 and 5% CO2) at 0° C. After the microscopic dressing, the papillary muscle specimen was fixed with a stainless steel needle on the silicone rubber at the bottom of the perfusion bath, and perfused with the oxygen-saturated Kreb's solution. The relevant parameters for perfusion: the temperature was 37±0.5° C., and the flow rate was 4 mL/min.
Cellular action potentials were recorded using a conventional electrophysiological method. The glass electrode filled with 3M KCl saturated solution and having a tip resistance of 15-30 MΩ was fixed on the microelectrode manipulator MP-2. The glass electrode was gently inserted into the superficial layer of the prepared papillary muscle specimen using a microelectrode pusher. The electrode was adjusted to provide the predetermined bioelectrical stimulation with the triple-channel SEN-7203 electronic stimulator and SS-202 J isolator. The bioelectrical signal was amplified by the MEZ-8301 amplifier and then input to the computerized electrophysiological recording and analysis system Powerlab 4/25. Subsequently, the relevant parameters of the action potential for the ventricular papillary muscle were analyzed through the analysis system. The relevant parameters for electrical stimulation: 30 ms latency, 7 ms wavewidth, 1 Hz frequency, 52.1 my stimulation intensity.
In the compound screening test stage, after the ventricular papillary muscle specimen of the guinea pig was fixed, it was first perfused with a normal Kreb's solution for about 85 minutes for stabilization, and the relevant parameters of the cellular action potential before administration were recorded at about 80 min after the start of perfusion. The three-limb tube was used to convert the perfusates containing the title compounds. The title compounds were continuously perfused for about 25 min successively with low (0.0005 μM), medium (0.005 μM), and high (0.05 μM) concentrations, respectively. At about 20 min after the start of drug perfusions at different concentrations, the relevant parameters of the action potentials for the ventricular papillary muscle of guinea pig were observed and recorded, respectively. The normal Kreb's solution was used to perfuse and elute for about 25 min during the intervals between drug perfusions at different concentrations.
The experiment was divided into the following five groups with 6 animals in each group: a vehicle control group, a 369 low dose (0.0005 μM) group, a 369 medium dose (0.005 μM) group, a 369 high dose (0.05 μM) group, and an amiodarone (10 μM) positive control group. After the ventricular papillary muscle specimen of the guinea pig was fixed, it was first perfused with a normal Kreb's solution for about 85 minutes for stabilization, and the relevant parameters of the cellular action potential before administration were recorded at about 80 min after the start of perfusion. According to groups, the three-limb tube was configured to convert the perfusates containing the vehicle, positive control, or Compound 369 at the corresponding concentrations to continuously perfuse for about 25 min. At about 20 min after the start of the perfusions, the relevant parameters of the action potentials for the ventricular papillary muscle of guinea pig were observed and recorded.

SD rats [2] = test: Rat myocardial ischemia model with coronary artery ligation and reperfusion (arrhythmia incidence); type: in vivo; conditions: injection (sublingually) 5 min before ischemia
Source text: Method: SD rats were anesthetized with pentobarbital, and a cervical midline incision was made to separate and cut off the trachea such that it was connected to a respirator. The skin was cut along the midline of the left clavicle of the rat, and the chest was opened between the left third and fourth ribs to gently squeeze out the heart. The pericardium was opened, the needle was inserted at the left edge of the pulmonary artery cone and 2 mm at the lower edge of the left atrial appendage. The 6-0 non-invasive suture was threaded through the superficial myocardium, with the left anterior descending coronary artery (LAD) located thereon. After stabilization for 5 min, a double-layer plastic cannula was put on, and the cable tie was tighten to complete the myocardial ischemia induced by left coronary artery occlusion. The criterion for myocardial ischemia is the occurrence of myocardial infarction (St-segment ran up or T-wave was shown as high sharp wave) in the electrocardiogram and the presence of local cyanosis in the heart. After 5 min of myocardial ischemia, the inner cannula was withdrawn, that is, the wire knot was released for reperfusion, and the electrocardiogram of reperfusion in the rat was recorded.
The administration was performed at 5 min before the ischemia by coronary artery ligation, and the administration mode was injection administration (sublingually).

SD rats [3] = test: Single-dose toxicity (MTD) in SD rats; type: in vivo; conditions: SD rat; single intravenous injection
Source text: (§1) The results of the experimental study on the toxicity of Compound 369 administrated through a single intravenous or intragastrical administration in SD rats and KM mice are shown in Table 9.

[4] = Pharmacokinetics in Beagle canines; type: in vivo; conditions: Beagle canines; 2 mg/kg; intragastrical administration
Method: Method: Six healthy male Beagle canines were selected and divided into two groups. 2 mg/kg of Compound 369 or cyclovirobuxine D was administrated intragastrically, respectively. Blood samples (about 2 mL) were collected from the limb venous of canines 0 h before administration as well as 0.25 h, 0.5 h, 1 h, 2 h, 4 h, 6 h, 8 h, and 12 h after administration. The concentrations of Compound 369 and cyclovirobuxine D in plasma samples were determined by LC-MS/MS, and the pharmacokinetic parameters were calculated by DAS.3.0 software.

KM mice = test: Single-dose toxicity (MTD) in KM mice; type: in vivo; conditions: KM mouse; single intragastrical administration
Source text: as §1

[5] = test system: ventricular myocytes of guinea pig; conditions: literature, cited from earlier work
[6] = Pharmacokinetics in SD rats; type: in vivo, rat; conditions: SD rats, 2 mg/kg
Method: Method: twelve SD male rats were divided into four groups: 2 mg/kg of Compound 369 or cyclovirobuxine D was single dose through the intravenous injection or intragastrical administration, respectively. In the intravenous and intragastrical groups, blood samples (about 0.3 Ml) were collected from the posterior orbital venous plexus pro-dose and 0.25 h, 0.5 h, 1 h, 2 h, 4 h, 6 h, 8 h, and 12 h post-dose. The concentrations of Compound 369 and cyclovirobuxine D in plasma samples were determined by LC-MS/MS, and the pharmacokinetic parameters were calculated by DAS.3.0 software.

## CCCCc1oc2ccccc2c1C(=O)c1cc(I)c(OCCN(CC)CC)c(I)c1 [Amiodarone, reference compound]
Guinea pig heart
  Incidence (%) of atrial fibrillation: 17%
  Number of animals developing atrial fibrillation: 1
[1]; Cavia porcellus, 20 min, 10 μM, read-out: APD, Change rate (%)
  percent change in action potential duration at 10 µM: 56.8%
[1]; 10 μM
  APD50, Change rate (%): 93.34% ± 53.59%^b
  APD50, Post-administration: 0.0590 ± 0.0269^a
  APD90, Change rate (%): 68.91% ± 33.59%^b
  APD90, Post-administration: 0.0862 ± 0.0275^a
  APD, Post-administration: 0.1028 ± 0.0258^a
[1]; 10 μM group, baseline
  APD50, Pre-administration: 0.0313 ± 0.0131
  APD90, Pre-administration: 0.0524 ± 0.0175
SD rats [2]; 3 mg/kg
  Death (%): 13%
  Death n: 1
  Ventricular fibrillation (%): 38%
  Ventricular fibrillation n: 3
  Ventricular premature beat (%): 100%
  Ventricular premature beat n: 8
  Ventricular tachycardia (%): 87%
  Ventricular tachycardia n: 7

## CN[C@@H](C)[C@H]1[C@H](O)C[C@@]2(C)[C@@H]3CC[C@H]4C(C)(C)[C@@H](NC)CC[C@@]45C[C@@]35CC[C@]12C [Cyclovirobuxine D, reference compound]
SD rats [3]
  Maximum tolerance dose (MTD): 5 mg/kg
[4]
  AUCt: 274.3 ng·h/mL
  Cmax: 19.09 ng/mL
  T1/2: 15.90 h
  Tmax: 3.55 h
Guinea pig heart
  Incidence (%) of atrial fibrillation: 83%
  Number of animals developing atrial fibrillation: 5
KM mice
  Maximum tolerance dose (MTD): 400 mg/kg
SD rats [2]; 1 mg/kg
  Death (%): 50%
  Death n: 3
  Ventricular fibrillation (%): 83%
  Ventricular fibrillation n: 5
  Ventricular premature beat (%): 100%
  Ventricular premature beat n: 6
  Ventricular tachycardia (%): 100%
  Ventricular tachycardia n: 6
[5]; 0.024 μM
  Effect on APD of the action potential (in words): can prolong the APD
[5]; 0.012-0.036 μM
  Spontaneous activity frequency of cardiomyocytes (in words): slow down or even disappear
[6]; intragastrical administration
  AUCt: 110.6 ng·h/mL
  Cmax: 16.30 ng/mL
  F: 36%
  T1/2: 18.85 h
  Tmax: 2.75 h
[6]; intravenous injection
  AUCt: 310.0 ng·h/mL
  Cmax: 146.2 ng/mL
  T1/2: 8.54 h
  Tmax: 0.25 h
